Data set [1] concerns Escherichia coli strain ATCC25922. Description: Standard microdilution MIC assay, E. coli. It counts as cell-based. Summed up:
(§1)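 MICs obtained by CLSI-standard microdilution, quality-controlled with reference strains in parallel. Values reported as + or − relative to a 16 micrograms/mL cutoff.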
For orientation: Dilution methods test growth across graded concentrations, often in twofold steps.

Data set [2] relates to Staphylococcus aureus (S. aureus) 11540 strain. Description: Standard microdilution MIC assay, S. aureus. Type of data set: cell-based. The method in brief:
as §1

The nature of data set [3]: Rat five day safety study (bodyweight gain, reticulocyte count change). It counts as in vivo. To be noted: male Sprague-Dawley juvenile rats, n=5, once daily slow intravenous infusion for 5 days at or near maximum-tolerated dose; for BW Result: bodyweight gain; for Hematology Result: reticulocyte count change. The protocol:
The compounds of the present disclosure were tested for safety in a multi-day dosing study in rat. Key parameters that were monitored are bodyweight gain and hematological changes, particularly changes in reticulocyte counts. Male Sprague-Dawley (CD) juvenile rats were received from Charles River with double jugular vein catheters. For each compound, n=5. […] Bodyweights were recorded daily for the first 5 days (during the dosing period), then 2 to 3 times per week thereafter. Blood was collected via a jugular vein catheter into EDTA anti-coagulated tubes for complete blood counts (CBC) on Days 0 (baseline), 3 and 7. On Day 22, blood was drawn via a cardiac puncture into EDTA coated tubes for final CBC, and serum separator tubes for the complete clinical chemistry profile. The blood that was collected into serum separator tubes was allowed to clot at room temperature for approximately 30 minutes, spun in a centrifuge at 2000 rpm, and the resulting serum was aliquoted. All samples were sent on wet ice to Charles River Labs for analysis.

Some results are limits rather than exact numbers.

For the compound `C=C[C@@H](CCNC(=N)CF)NCc1ccc(-n2cc3cc(-c4cc(CCC[C@H](C)N)cc(Cl)c4F)[nH]c3nc2=O)cc1` [Compound 23], the MIC in data set [1] is not above 16 µg/mL. For the same compound, in data set [2], the MIC is not above 16 µg/mL. For the same compound, in data set [3], the “BW Result” value was “+ (a “+” in “BW result” indicates that the rat exhibited a weight gain of 20% or more)” and the “Hematology Result” value is “+ (a “+” in “Hematology result” indicates indicates that the rat exhibited a reticulocyte count change of 65% or less)”.
Consider `C=C[C@@H](N)CCCc1cc(Cl)c(F)c(-c2cc3cn(-c4ccc([C@@H]5CCC[C@@H](CCNC(C)=N)N5)cc4)c(=O)nc3[nH]2)c1` [Compound 36], for which the MIC in data set [1] and in data set [2] was not above 16 µg/mL throughout. The “Hematology Result” value in data set [3] is listed as “− (a “−” indicates indicates that the rat exhibited a reticulocyte count change of greater than 65%)”.
For `CC(=N)NCC[C@@H]1CNC[C@@H](c2ccc(-n3cc4cc(-c5cc(CCC[C@H](C)N)cc(Cl)c5F)[nH]c4nc3=O)cc2)N1` [Compound 50], in data set [1], the MIC was not above 16 µg/mL. Moreover, the MIC in data set [2] is not above 16 µg/mL. In addition, in data set [3], the “BW Result” value was “+ (a “+” in “BW result” indicates that the rat exhibited a weight gain of 20% or more)” and the “Hematology Result” value is on record as “+ (a “+” in “Hematology result” indicates indicates that the rat exhibited a reticulocyte count change of 65% or less)”.
In the case of `CC(=N)NCCCN[C@@H](C)c1ccc(-n2cc3cc(-c4cc(CCC[C@H](C)N)cc(Cl)c4F)[nH]c3nc2=O)cc1` [Compound 110], the minimum inhibitory concentration (MIC) in data set [1] was not above 16 µg/mL. In data set [2], this compound yielded an MIC not above 16 µg/mL. Besides, in data set [3], the “BW Result” value is recorded as “− (a “−” indicates that the rat exhibited a weight gain of less than 20%)” and the “Hematology Result” value is listed as “− (a “−” indicates indicates that the rat exhibited a reticulocyte count change of greater than 65%)”.
As for `CC(=N)NCC[C@@H]1CCC[C@@H](c2ccc(-n3cc4cc(-c5cc(CCC[C@H](C)N)cc(Cl)c5F)[nH]c4nc3=O)cc2S(C)(=O)=O)N1` [Compound 117], the MIC in data set [1] is not above 16 µg/mL. For the same compound, the MIC in data set [2] was not above 16 µg/mL. Moreover, in data set [3], the “BW Result” value is reported as “− (a “−” indicates that the rat exhibited a weight gain of less than 20%)” and the “Hematology Result” value is recorded as “+ (a “+” in “Hematology result” indicates indicates that the rat exhibited a reticulocyte count change of 65% or less)”.
In data set [1], `CC(=N)NCC[C@@H](NCc1ccc(-n2cc3cc(-c4cc(CCC[C@H](C)N)cc(Cl)c4F)[nH]c3nc2=O)cc1)C1CC1` [Compound 119] returned an MIC not above 16 µg/mL. Also, the MIC in data set [2] is not above 16 µg/mL. Further, in data set [3], the “BW Result” value is listed as “− (a “−” indicates that the rat exhibited a weight gain of less than 20%)” and the “Hematology Result” value was “− (a “−” indicates indicates that the rat exhibited a reticulocyte count change of greater than 65%)”.
Take `CSc1cc(-n2cc3cc(-c4cc(CCC[C@@H](N)C5CC5)cc(Cl)c4F)[nH]c3nc2=O)ccc1[C@@H]1CCC[C@@H](CCNC(C)=N)N1` [Compound 120]: the MIC in data set [1] was not above 16 µg/mL. The MIC in data set [2] is not above 16 µg/mL. For the same compound, in data set [3], the “BW Result” value was “+ (a “+” in “BW result” indicates that the rat exhibited a weight gain of 20% or more)” and the “Hematology Result” value is “+ (a “+” in “Hematology result” indicates indicates that the rat exhibited a reticulocyte count change of 65% or less)”.
In the case of `CC(=N)NCC[C@@H]1CCC[C@@H](c2ccc(-n3cc4cc(-c5cc(CCC[C@@H](N)C6CC6)cc(Cl)c5F)[nH]c4nc3=O)cc2)N1C` [Compound 123], the MIC in data set [1] was not above 16 µg/mL. This compound also had a minimum inhibitory concentration (MIC) in data set [2] not above 16 µg/mL. Further, in data set [3], the “BW Result” value was “+ (a “+” in “BW result” indicates that the rat exhibited a weight gain of 20% or more)” and the “Hematology Result” value was “+ (a “+” in “Hematology result” indicates indicates that the rat exhibited a reticulocyte count change of 65% or less)”.
The compound `CC(=N)NCC[C@@H]1CCC[C@@H](c2c(F)cc(-n3cc4cc(-c5cc(CCC[C@H](C)N)cc(Cl)c5F)[nH]c4nc3=O)cc2F)N1` [Compound 127] came in with an MIC in data set [1] not above 16 µg/mL. The same compound registered a minimum inhibitory concentration (MIC) in data set [2] not above 16 µg/mL. Also, in data set [3], the “BW Result” value is listed as “+ (a “+” in “BW result” indicates that the rat exhibited a weight gain of 20% or more)” and the “Hematology Result” value is on record as “+ (a “+” in “Hematology result” indicates indicates that the rat exhibited a reticulocyte count change of 65% or less)”.
In data set [1], `CC(=N)NCC[C@@H]1CCC[C@@H](c2ccc(-n3cc4cc(-c5cc(CCC[C@H](C)N)cc(Cl)c5F)[nH]c4nc3=O)cc2F)N1` [Compound 152] yielded an MIC not above 16 µg/mL. In addition, the MIC in data set [2] is not above 16 µg/mL. Also, in data set [3], the “BW Result” value is listed as “+ (a “+” in “BW result” indicates that the rat exhibited a weight gain of 20% or more)” and the “Hematology Result” value is “+ (a “+” in “Hematology result” indicates indicates that the rat exhibited a reticulocyte count change of 65% or less)”.
In turn, `CC(=N)NCC[C@@H]1CCC[C@@H](c2ccc(-n3cc4cc(-c5cc(CCC[C@@H](N)CO)cc(Cl)c5F)[nH]c4nc3=O)cc2F)N1` [Compound 162] gave an MIC in data set [1] not above 16 µg/mL. The compound further returned an MIC in data set [2] not above 16 µg/mL. In addition, in data set [3], the “BW Result” value is “− (a “−” indicates that the rat exhibited a weight gain of less than 20%)” and the “Hematology Result” value is reported as “− (a “−” indicates indicates that the rat exhibited a reticulocyte count change of greater than 65%)”.
On to `C=C[C@H](N)CCCc1cc(Cl)c(F)c(-c2cc3cn(-c4ccc([C@@H]5CCC[C@@H](CCNC(C)=N)N5)c(SC)c4)c(=O)nc3[nH]2)c1` [Compound 182], for which the MIC in data set [1] is not above 16 µg/mL. The compound further came in with an MIC in data set [2] not above 16 µg/mL. Moreover, in data set [3], the “BW Result” value is recorded as “− (a “−” indicates that the rat exhibited a weight gain of less than 20%)” and the “Hematology Result” value is recorded as “− (a “−” indicates indicates that the rat exhibited a reticulocyte count change of greater than 65%)”.
For the compound `COC[C@H](N)CCCc1cc(-c2cc3cn(-c4ccc([C@@H]5CCC[C@@H](CCNC(C)=N)N5)cc4)c(=O)nc3[nH]2)c(F)c(C(F)(F)F)c1` [Compound 190], the MIC in data set [1] and in data set [2] was not above 16 µg/mL each time. In addition, in data set [3], the “BW Result” value is reported as “− (a “−” indicates that the rat exhibited a weight gain of less than 20%)”. The “Hematology Result” value in data set [3] is “− (a “−” indicates indicates that the rat exhibited a reticulocyte count change of greater than 65%)”.
Turning to `COC[C@H](N)CCCc1cc(-c2cc3cn(-c4ccc([C@@H]5CCC[C@@H](CCNC(C)=N)N5)c(F)c4)c(=O)nc3[nH]2)c(F)c(C(F)(F)F)c1` [Compound 191], the MIC in data set [1] and in data set [2] was not above 16 µg/mL in each case. Besides, in data set [3], the “BW Result” value is listed as “+ (a “+” in “BW result” indicates that the rat exhibited a weight gain of 20% or more)”. Also, the “Hematology Result” value in data set [3] is listed as “+ (a “+” in “Hematology result” indicates indicates that the rat exhibited a reticulocyte count change of 65% or less)”.
In data set [1], `COC[C@H](N)CCCc1cc(OC(F)(F)F)c(F)c(-c2cc3cn(-c4ccc([C@@H]5CCC[C@@H](CCNC(C)=N)N5)c(F)c4)c(=O)nc3[nH]2)c1` [Compound 196] had an MIC not above 16 µg/mL. Also, in data set [2], the MIC is not above 16 µg/mL. In data set [3], the “BW Result” value is recorded as “+ (a “+” in “BW result” indicates that the rat exhibited a weight gain of 20% or more)” and the “Hematology Result” value is listed as “+ (a “+” in “Hematology result” indicates indicates that the rat exhibited a reticulocyte count change of 65% or less)”.
`COC[C@H](N)CCCc1cc(-c2cc3cn(-c4ccc([C@@H]5CCC[C@@H](CCNC(C)=N)N5)c(SC)c4)c(=O)nc3[nH]2)c(F)c(C(F)(F)F)c1` [Compound 199]: the MIC in data set [1] and in data set [2] was not above 16 µg/mL throughout. In addition, the “BW Result” value in data set [3] is listed as “+ (a “+” in “BW result” indicates that the rat exhibited a weight gain of 20% or more)”. The “Hematology Result” value in data set [3] is reported as “− (a “−” indicates indicates that the rat exhibited a reticulocyte count change of greater than 65%)”.
As for `COC[C@H](N)CCCc1cc(-c2cc3cn(-c4ccc([C@@H]5CCC[C@@H](CCNC(C)=N)N5)cc4)c(=O)nc3[nH]2)cc(C(F)(F)F)c1` [Compound 200], the MIC in data set [1] is not above 16 µg/mL. Moreover, the MIC in data set [2] is not above 16 µg/mL. Moreover, in data set [3], the “BW Result” value was “+ (a “+” in “BW result” indicates that the rat exhibited a weight gain of 20% or more)” and the “Hematology Result” value was “− (a “−” indicates indicates that the rat exhibited a reticulocyte count change of greater than 65%)”.
With `CC(=N)NCC[C@@H]1CCC[C@@H](c2ccc(-n3cc4cc(-c5cc(CCC[C@@H](N)C6CC6)cc(C(F)(F)F)c5F)[nH]c4nc3=O)cn2)N1` [Compound 249], the MIC in data set [1] and in data set [2] was not above 16 µg/mL throughout. Besides, the “BW Result” value in data set [3] is given as “+ (a “+” in “BW result” indicates that the rat exhibited a weight gain of 20% or more)”. Further, the “Hematology Result” value in data set [3] is listed as “+ (a “+” in “Hematology result” indicates indicates that the rat exhibited a reticulocyte count change of 65% or less)”.
For `CC(=N)NCC[C@@H]1CCC[C@@H](c2ccc(-n3cc4cc(-c5cc(Cl)cc(CCC[C@H](C)N)c5)[nH]c4nc3=O)cc2)N1` [Compound 370], the MIC in data set [1] and in data set [2] was not above 16 µg/mL each time.
With `COc1ccc(CCC[C@H](C)N)cc1-c1cc2cn(-c3ccc([C@@H]4CCC[C@@H](CCNC(C)=N)N4)cc3)c(=O)nc2[nH]1` [Compound 377], the MIC in data set [1] and in data set [2] was not above 16 µg/mL in each case.

By MIC is commonly meant the lowest concentration that inhibits growth of the organism.

Source of the values: patent US11999739B2, “Antimicrobials methods of making and using the same” (BIOVERSYS AG, priority 2016, dated 2024).
